Drawing on patent publication US7875607B2, “7,8-bicycloakyl-chroman derivatives” (Ampere Life Sciences, Inc., priority 2004, dated 2011), this text covers EC50 and IC50 for 16 compounds.

Some results are limits rather than exact numbers.

A word on the EC50: it is the concentration that produces a half-maximal response. In general, IC50 refers to the midpoint of a concentration-inhibition curve.

Test [1] concerns dopaminergic neuronal cell line. As to the kind of experiment: High glutamate-induced oxidative stress assay (HGOS). In kind it is cell-based. Particulars: Mus musculus; 30 mM glutamate, 16 hrs; read-out: EC50, protection against HGOS cell injury and cell death. The text has this: Protection against redox stress can be further evaluated in cell culture using high glutamate induced oxidative stress (HGOS) in mouse dopaminergic cell lines. The cytotoxic effect of glutamate is not due to excitotoxicity, as this cell line is devoid of inotropic glutamate receptors. Rather, the glutamate-induced toxicity of dopaminergic cells is associated with an inhibition of cystine transport which subsequently leads to depletion of intracellular glutathione (GSH) levels (Murphy T. H., et al. Neuron 2, 1547-1558, 1989), activation of neuronal 12-lipoxygenase (Li, Y. et al., Neuron 19, 453-463, 1997), increased ROS production (Tan S. et al., J. Cell Biol. 141, 1423-1432, 1998) and elevated intracellular Ca^2+ (Li, Y. et al., see supra). Some molecules were measured for their ability to protect cells against glutamate-induced stress and the assay is detailed in Examples.
This procedure was used to induce high glutamate-induced oxidative stress (HGOS) in a dopaminergic neuronal cell line. Using this assay the potency and efficacy of test articles against HGOS neuronal cell injury and cell death was established in a high throughput manner.
The cells were seeded into 96-well plates at a density of 2000 per well and left to grow for 72 hours in a 33° C. incubator with 5% CO2 in air atmosphere. The passage number of the cells for each assay experiment were no later than p11 in order to minimize experimental variation.
All compounds were dissolved in DMEM-No Glu containing 1 mM glucose, 30 mM glutamate and 1×Pen/Strep. DMEM-No Glu with 1 mM glucose and 1×P/S was used as the negative control, DMEM-No Glucose with 1 mM glucose, […] was used as a positive control and 100 μM Glutathione was added to the positive control as a standard. All of the procedures for this involving the making and dilution of compounds were performed using aseptic conditions and with minimal light.
The plates were removed from the incubator and examined under the microscope for morphological appearance and density. Using an aseptic technique and an 8-channel aspirator the media was carefully removed from the cells and replaced with 200 μl of 1×HBSS. This was done as quickly as possible to prevent the cells drying out. The plates were then placed in the humidified 37° C. incubators of the Biomek 2000 Side Loader. Four plates were washed at a time so as to minimize the time that the cells were sitting in 1×HBSS prior to addition of the compound test solution.
The Beckman Biomek workstations were used to load the compounds and controls from the mother plates onto the cell plates that were prewashed with HBSS under sterile conditions. The plates were incubated in the upper HTS incubator at 37° C. in 5% CO2 for exactly 16 hrs. The following day, using the Beckman Biomek workstations, the plates were removed from the incubator. Using Cell Tracker Addition, the compounds were removed from the plates, washed once with […] of pre-warmed 1×HBSS and then 100 μL of 5 μM Cell Tracker Green was added to each well. The plates were incubated at 37° C. for 30 min to allow the dye to enter the cell and be cleaved by the esterases. After washing the cells twice with prewarmed 1×HBSS, the plates were read with the 485 excitation; 538 emission filter pair on a Fluoroskan.

Test [2] deals with T1, human recombinant 5-lipoxygenase (Homo sapiens, UniProt P09917).
T1 construct: purchased Cayman 60402
T1 sequence (P09917 1-674): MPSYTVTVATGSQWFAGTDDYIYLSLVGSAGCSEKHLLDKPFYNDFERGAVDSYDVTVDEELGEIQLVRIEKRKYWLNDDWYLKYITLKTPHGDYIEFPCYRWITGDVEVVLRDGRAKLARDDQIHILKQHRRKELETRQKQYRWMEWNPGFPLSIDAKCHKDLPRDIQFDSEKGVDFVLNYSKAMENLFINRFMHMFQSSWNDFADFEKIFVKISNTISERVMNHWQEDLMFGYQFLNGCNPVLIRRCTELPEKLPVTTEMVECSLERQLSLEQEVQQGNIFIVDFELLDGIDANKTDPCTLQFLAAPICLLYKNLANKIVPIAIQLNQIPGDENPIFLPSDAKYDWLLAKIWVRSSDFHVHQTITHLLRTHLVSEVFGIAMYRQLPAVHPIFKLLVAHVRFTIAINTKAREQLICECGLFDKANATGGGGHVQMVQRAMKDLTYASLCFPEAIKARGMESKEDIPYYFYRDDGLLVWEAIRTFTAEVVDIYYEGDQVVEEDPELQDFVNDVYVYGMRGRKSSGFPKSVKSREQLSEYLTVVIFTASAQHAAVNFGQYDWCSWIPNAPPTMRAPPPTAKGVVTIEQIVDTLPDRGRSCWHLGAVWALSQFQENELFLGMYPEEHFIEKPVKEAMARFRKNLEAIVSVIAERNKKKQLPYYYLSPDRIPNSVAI
As to the kind of experiment: 5-Lipoxygenase enzyme assay. In kind it is biochemical. The settings on record: 70 μM arachidonic acid, pH 7.4. The method, then:
This procedure was used for measuring the enzymatic activity of human recombinant 5-lipoxygenase using a […] method based on the ferric oxidation of xylenol orange.
Human recombinant 5-lipoxygenase (Cayman Cat # 60402) was used in this assay. The test compound and/or vehicle was added to 0.5U 5-lipoxygenase in 50 mM Tris-HCl buffer, pH 7.4. The reaction was initiated by addition of 70 μM arachidonic acid in Tris-HCl buffer, pH 7.4, and terminated after a 10 minute incubation at room temperature by addition of FOX reagent (25 mM sulphuric acid, 100 μM xylenol orange, 100 μM iron (II) sulphate, methanol:water 9:1). The yellow color of acidified xylenol orange was converted to a blue color by the lipid hydroperoxide-mediated oxidation of Fe^2+ ions and the interaction of the resulting Fe^3+ ions with the dye. The complex was allowed to form during a 1 hour incubation at room temperature with shaking. Absorbance of the Fe^3+ complex was then measured at […] using a spectrophotometer.
Negative controls contained enzyme during the incubation step but substrate was not added until after the FOX reagent.
Compounds were screened at 5 concentrations in triplicate starting at 10 μM

Test [3] relates to LTB4 production in heparinized whole blood. The test can be described thus: Inhibition of LTB4 production in blood. In kind it is cell-based, rat or mouse. Particulars: 20 μM A23187, read-out: EC50, protection against LTB4. The method, then:
The blood was collected in heparinized tubes or syringes to prevent clotting. Heparin was at 20 USP U/ml. About 3-5 ml of blood was collected per rat and about 0.5-0.75 ml per mouse. This assay required 200 μl/data point, therefore a 96 well plate requires 20 ml.
The Calcium ionophore A23187 was prepared as a 10 mM stock solution in DMSO and the test agent is prepared in DMSO so that <1 μl DMSO will be added to the well
200 μl blood per well were added in a round bottom 96 well clear plastic 96 well plate followed by the test agent. After 10 minutes incubation at 37° C., 5 μl of Calcium ionophore A23187 for a final concentration of 20 μM were added and mixed, and further incubated for 30 min. After 1000×g centrifugation to pellet blood cells, 20 μl plasma was carefully removed.
20 μl plasma were added to 80 μl methanol to precipitate protein and mixed. This was further incubated 10 min. at room temperature and centrifuged at 1000×g to pellet protein.
Following manufacturer's instructions, the commercially available EIA kit was used to subsequently measure the LTB4 production in the samples. The LTB4 levels produced in the vehicle control sample were then compared to those in which the test compound had been added. From this a percent inhibition of LTB4 production by each concentration of test compound was calculated and the IC50 for inhibition of LTB4 production for each test compound was determined.

In test [4] the test system is LTB4 release from MPRO cell line. As to the kind of experiment: LTB4-cell assay. Particulars: Mus musculus; differentiated MPRO cells, 1 μM A23187, 1 hour; read-out: EC50, inhibition of LTB4. In kind it is cell-based. The method, then:
This procedure was used for measuring the release of the leukotriene LTB4 from a neutrophil cell line using a competitive ELISA technique.
A mouse promyelocytic cell line (MPRO) was used in this assay. These cells are committed immature neutrophils that can be differentiated into mature neutrophils by treatment with 10 μM all-trans retinoic acid for 72 hours
Following 72 hours of differentiation, cells were stimulated with 1 μM of a calcium ionophore (A23187) in the presence or absence of test compound or vehicle for 1 hour at 37° C. After this time, supernatant was removed from the cells and the LTB4 levels were determined following manufacturer's instructions, using a Leukotriene B4 EIA kit from Cayman (Cat # 520111)
The negative controls were media samples from differentiated but unstimulated cells.
The compounds were screened at 5 concentrations in quadruplicate starting at 10 μM

On to `CC(C)=CCc1c(O)c2c(c3c1CCC(C)(C)O3)C1CCC2CC1` [2,2-Dimethyl-5-(3-methyl-but-2-enyl)-3,4,7,8,9,10-hexahydro-7,10-ethano-2H-benzo[h]chromen-6-ol], for which the EC50 in test [1] is at most 1 µM.

In the case of `CC(C)=CCc1c(O)c2c(c3c1C=CC(C)(C)O3)C1CCC2C1` (stereo not drawn) [2,2-Dimethyl-5-(3-methyl-but-2-enyl)-7,8,9,10-tetrahydro-7,10-methano-2H-benzo[h]chromen-6-ol], in test [1], the EC50 is at most 1 µM.

On to `CC1(CCCSc2nc3ccccc3s2)CCc2cc(O)c3c(c2O1)C1CCC3CC1` (stereo not drawn) [2-[3-(Benzothiazol-2-ylsulfanyl)-propyl]-2-methyl-3,4,7,8,9,10-hexahydro-7,10-ethano-2H-benzo[h]chromen-6-ol], for which the EC50 in test [1] was at most 1 µM.

For `CC1(CCC(=O)OCc2ccccc2)CCc2cc(O)c3c(c2O1)C1CCC3CC1` (stereo not drawn) [3-(6-Hydroxy-2-methyl-3,4,7,8,9,10-hexahydro-7,10-ethano-2H-benzo[h]chromen-2-yl)-propionic acid benzyl ester], the concentration for half-maximal inhibition (IC50) in test [2] was at most 5 µM.

Consider `COC(=O)CCC1(C)CCc2cc(O)c3c(c2O1)C1CCC3CC1` (stereo not drawn) [3-(6-Hydroxy-2-methyl-3,4,7,8,9,10-hexahydro-7,10-ethano-2H-benzo[h]chromen-2-yl)-propionic acid methyl ester], for which the 50% inhibitory concentration (IC50) in test [2] was at most 5 µM.

Take `COC(=O)CCC1(C)CCc2cc(O)c3c(c2O1)C1CCCC3CC1` (stereo not drawn) [3-(6-Hydroxy-2-methyl-3,4,7,8,9,10-hexahydro-7,10-propano-2H-benzo[h]chromen-2-yl)-propionic Acid Methyl Ester]: in test [2], the IC50 is at most 5 µM. Further, the EC50 in test [1] was at most 1 µM.

Consider `CCCC1=NN(C)C(=O)/C1=C\c1c(O)c2c(c3c1CCC(C)(C)O3)C1CCC2C1` (stereo not drawn) [4-(6-Hydroxy-2,2-dimethyl-3,4,7,8,9,10-hexahydro-7,10-methano-2H-benzo[h]chromen-5-ylmethylene)-2-methyl-5-propyl-2,4-dihydro-pyrazol-3-one], for which the EC50 was at most 10 µM in test [3] and at most 1 µM in test [1].

`CC1=NN(c2ccc(C(=O)O)cc2)C(=O)C1=Cc1c(O)c2c(c3c1CCC(C)(C)O3)C1CCC2C1` (stereo not drawn) [4-[4-(6-Hydroxy-2,2-dimethyl-3,4,7,8,9,10-hexahydro-7,10-methano-2H-benzo[h]chromen-5-ylmethylene)-3-methyl-5-oxo-4,5-dihydro-pyrazol-1-yl]-benzoic acid]: in test [1], the concentration giving a half-maximal response (EC50) was at most 1 µM.

With `CC1(C)CCc2c(CC=C3CCCCC3)c(O)c3c(c2O1)C1CCC3CC1` [5-(2-Cyclohexylidene-ethyl)-2,2-dimethyl-3,4,7,8,9,10-hexahydro-7,10-ethano-2H-benzo[h]chromen-6-ol], in test [1], the EC50 was at most 1 µM.

As to `CC1(C)CCc2c(C=C3C(=O)Oc4ccc(O)cc43)c(O)c3c(c2O1)C1CCC3C1` (stereo not drawn) [5-Hydroxy-3-(6-hydroxy-2,2-dimethyl-3,4,7,8,9,10-hexahydro-7,10-methano-2H-benzo[h]chromen-5-ylmethylene)-3H-benzofuran-2-one], the EC50 in test [1] was at most 1 µM.

As for `CC1(C)CCc2c(CO)c(O)c3c(c2O1)C1CCC3C1` (stereo not drawn) [5-Hydroxymethyl-2,2-dimethyl-3,4,7,8,9,10-hexahydro-7,10-methano-2H-benzo[h]chromen-6-ol], the 50% effective concentration (EC50) in test [1] is at most 1 µM.

Turning to `COC12CCC(CC1)c1c(O)cc3c(c12)OC(C)(C)CC3` [10-Methoxy-2,2-dimethyl-3,4,7,8,9,10-hexahydro-7,10-ethano-2H-benzo[h]chromen-6-ol], in test [2], the IC50 was at most 5 µM.

In the case of `CC(=O)Oc1c(CC=C(C)C)c2c(c3c1C1CCC3C1)OC(C)(C)C=C2` (stereo not drawn) [Acetic acid 2,2-dimethyl-5-(3-methyl-but-2-enyl)-7,8,9,10-tetrahydro-7,10-methano-2H-benzo[h]chromen-6-yl ester], the EC50 in test [1] is at most 1 µM.

As to `CC(=O)Oc1c(CCC(C)C)c2c(c3c1C1CCC3C1)OC(C)(C)CC2` (stereo not drawn) [Acetic acid 2,2-dimethyl-5-(3-methyl-butyl)-3,4,7,8,9,10-hexahydro-7,10-methano-2H-benzo[h]chromen-6-yl ester], the EC50 in test [1] is at most 1 µM.

Regarding `CN(C)CC(=O)Oc1cc2c(c3c1C1CCC3CC1)OC(C)(C)CC2` [Dimethylamino-acetic acid 2,2-dimethyl-3,4,7,8,9,10-hexahydro-7,10-ethano-2H-benzo[h]chromen-6-yl ester], the concentration giving a half-maximal response (EC50) in test [4] was at most 5 µM.

For `COP(=O)(CCCC1(C)CCc2cc(O)c3c(c2O1)C1CCC3C1)OC` (stereo not drawn) [[3-(6-Hydroxy-2-methyl-3,4,7,8,9,10-hexahydro-7,10-methano-2H-benzo[h]chromen-2-yl)-propyl]-phosphonic Acid Dimethyl Ester], in test [3], the EC50 was at most 10 µM.
